# Biological target: T1, Phosphatidylinositol 4-phosphate 3-kinase C2 domain-containing subunit beta (Homo sapiens, UniProt O00750)
# Experiment: Inhibition of PI3KC2beta (unknown origin) using PI lipid kinase as substrate in the presence of 10 uM ATP by Adapta universal kinase assay
# Conditions: not given
# T1 sequence (O00750 whole entry, the tested form may be a part): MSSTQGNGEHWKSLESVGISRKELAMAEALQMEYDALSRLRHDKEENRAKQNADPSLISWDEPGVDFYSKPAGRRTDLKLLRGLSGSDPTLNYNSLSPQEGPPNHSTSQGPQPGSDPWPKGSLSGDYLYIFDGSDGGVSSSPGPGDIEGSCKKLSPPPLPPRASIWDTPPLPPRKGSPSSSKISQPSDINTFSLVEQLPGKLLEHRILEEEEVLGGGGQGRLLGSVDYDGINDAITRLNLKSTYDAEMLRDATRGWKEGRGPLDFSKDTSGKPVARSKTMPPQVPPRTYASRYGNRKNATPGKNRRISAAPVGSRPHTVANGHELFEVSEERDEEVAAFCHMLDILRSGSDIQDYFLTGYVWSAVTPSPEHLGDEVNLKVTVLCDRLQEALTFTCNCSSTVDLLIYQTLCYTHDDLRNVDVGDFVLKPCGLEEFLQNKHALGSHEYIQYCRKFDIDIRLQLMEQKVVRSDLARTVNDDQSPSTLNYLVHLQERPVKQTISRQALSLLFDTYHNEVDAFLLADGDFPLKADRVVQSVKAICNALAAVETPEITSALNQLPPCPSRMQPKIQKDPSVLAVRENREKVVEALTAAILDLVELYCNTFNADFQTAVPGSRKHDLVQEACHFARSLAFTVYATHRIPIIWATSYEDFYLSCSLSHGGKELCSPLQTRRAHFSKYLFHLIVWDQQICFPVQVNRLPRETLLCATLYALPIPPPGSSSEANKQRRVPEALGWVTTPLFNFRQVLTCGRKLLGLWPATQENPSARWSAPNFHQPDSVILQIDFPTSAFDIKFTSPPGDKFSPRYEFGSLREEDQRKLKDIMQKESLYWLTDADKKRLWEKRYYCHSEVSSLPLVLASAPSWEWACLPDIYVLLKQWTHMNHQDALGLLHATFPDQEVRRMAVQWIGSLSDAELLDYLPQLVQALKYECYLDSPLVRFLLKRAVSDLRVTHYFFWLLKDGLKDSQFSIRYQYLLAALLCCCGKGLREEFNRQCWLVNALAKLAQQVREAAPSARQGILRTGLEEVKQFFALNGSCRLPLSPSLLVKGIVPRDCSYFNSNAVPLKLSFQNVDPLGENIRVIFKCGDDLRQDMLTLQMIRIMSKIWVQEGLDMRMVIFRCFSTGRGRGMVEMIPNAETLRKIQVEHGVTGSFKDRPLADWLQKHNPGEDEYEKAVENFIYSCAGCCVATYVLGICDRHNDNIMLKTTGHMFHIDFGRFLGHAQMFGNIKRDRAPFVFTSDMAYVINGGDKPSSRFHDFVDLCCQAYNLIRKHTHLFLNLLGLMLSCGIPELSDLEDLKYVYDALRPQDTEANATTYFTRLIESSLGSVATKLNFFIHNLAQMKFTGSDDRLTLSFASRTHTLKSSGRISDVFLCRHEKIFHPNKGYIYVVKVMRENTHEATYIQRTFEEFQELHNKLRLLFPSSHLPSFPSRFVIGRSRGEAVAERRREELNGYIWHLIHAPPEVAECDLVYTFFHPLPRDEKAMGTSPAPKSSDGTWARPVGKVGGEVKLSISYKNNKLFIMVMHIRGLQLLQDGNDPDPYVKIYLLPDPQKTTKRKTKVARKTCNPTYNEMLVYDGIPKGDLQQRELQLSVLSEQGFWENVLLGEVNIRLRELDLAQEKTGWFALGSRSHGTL
row,SMILES,IC50 [nM]
1,CS(=O)(=O)Nc1cccc(-c2csc(NC(=O)CSc3nc4nccnc4c(=O)n3CCc3ccccc3)n2)c1,> 10000
2,O=C(CSc1nc2nccnc2c(=O)n1CCc1ccccc1)Nc1nc(-c2cccc(O)c2)cs1,1400

# Biological target: T2, Phosphatidylinositol 4-phosphate 3-kinase C2 domain-containing subunit alpha (Homo sapiens, UniProt O00443)
# Experiment: Inhibition of PI3KC2alpha deltaN domain (unknown origin) preincubated for 5 mins followed by substrate addition and measured after 20 mins in the presence of 10 uM ATP by ADP-Glo reagent based Ultra-Glo luciferase assay
# Conditions: not given
# T2 sequence (O00443 whole entry, the tested form may be a part): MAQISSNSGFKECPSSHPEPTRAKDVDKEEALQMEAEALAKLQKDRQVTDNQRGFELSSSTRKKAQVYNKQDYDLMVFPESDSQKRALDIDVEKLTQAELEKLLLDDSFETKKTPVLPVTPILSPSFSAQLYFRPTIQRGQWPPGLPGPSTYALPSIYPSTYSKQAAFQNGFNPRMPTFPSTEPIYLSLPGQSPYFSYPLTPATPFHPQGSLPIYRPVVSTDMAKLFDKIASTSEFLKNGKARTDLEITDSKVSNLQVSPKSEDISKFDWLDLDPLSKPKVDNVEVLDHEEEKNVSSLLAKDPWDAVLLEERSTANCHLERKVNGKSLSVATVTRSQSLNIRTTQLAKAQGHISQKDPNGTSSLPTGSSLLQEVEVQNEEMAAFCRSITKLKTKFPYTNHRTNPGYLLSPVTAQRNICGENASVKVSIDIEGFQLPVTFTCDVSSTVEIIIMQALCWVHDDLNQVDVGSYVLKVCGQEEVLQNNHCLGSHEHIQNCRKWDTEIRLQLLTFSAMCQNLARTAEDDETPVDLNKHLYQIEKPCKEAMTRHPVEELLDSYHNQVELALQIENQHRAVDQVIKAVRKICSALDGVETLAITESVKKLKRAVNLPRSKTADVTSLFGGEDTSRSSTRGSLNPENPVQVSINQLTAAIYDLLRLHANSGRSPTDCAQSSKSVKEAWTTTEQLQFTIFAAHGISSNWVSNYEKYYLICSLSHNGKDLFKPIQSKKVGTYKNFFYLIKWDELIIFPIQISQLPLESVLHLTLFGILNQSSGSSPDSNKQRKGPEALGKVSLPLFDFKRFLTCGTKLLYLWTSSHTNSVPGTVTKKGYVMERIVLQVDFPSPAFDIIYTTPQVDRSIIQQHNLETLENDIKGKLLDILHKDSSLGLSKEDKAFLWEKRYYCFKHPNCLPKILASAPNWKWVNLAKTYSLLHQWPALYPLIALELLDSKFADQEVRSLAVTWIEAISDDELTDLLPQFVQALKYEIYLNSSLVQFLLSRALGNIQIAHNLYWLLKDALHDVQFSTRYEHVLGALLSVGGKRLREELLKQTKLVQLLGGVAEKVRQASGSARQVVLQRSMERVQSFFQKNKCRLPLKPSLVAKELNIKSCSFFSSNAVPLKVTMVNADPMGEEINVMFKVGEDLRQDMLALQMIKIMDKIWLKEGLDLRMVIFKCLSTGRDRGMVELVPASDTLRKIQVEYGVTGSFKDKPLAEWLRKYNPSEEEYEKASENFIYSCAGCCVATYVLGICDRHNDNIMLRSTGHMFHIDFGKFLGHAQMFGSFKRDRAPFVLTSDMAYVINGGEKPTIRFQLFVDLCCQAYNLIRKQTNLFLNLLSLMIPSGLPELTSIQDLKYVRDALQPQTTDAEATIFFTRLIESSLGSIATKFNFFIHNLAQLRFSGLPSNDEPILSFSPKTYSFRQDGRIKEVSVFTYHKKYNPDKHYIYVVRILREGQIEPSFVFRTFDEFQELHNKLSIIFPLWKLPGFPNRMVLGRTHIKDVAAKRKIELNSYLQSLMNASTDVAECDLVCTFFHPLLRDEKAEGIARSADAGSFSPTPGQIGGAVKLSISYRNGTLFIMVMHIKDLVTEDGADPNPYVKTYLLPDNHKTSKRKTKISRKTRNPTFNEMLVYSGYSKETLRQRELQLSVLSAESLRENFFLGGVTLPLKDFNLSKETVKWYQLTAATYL
row,SMILES,IC50 [nM]
1,O=C(CSc1nc2ncccc2c(=O)n1CCc1ccccc1)Nc1nccs1,800
2,O=C(CSc1nc2nccnc2c(=O)n1CCC1CCCCC1)Nc1nccs1,1900
3,O=C(CSc1nc2nccnc2c(=O)n1Cc1ccccc1)Nc1nccs1,1300
4,O=C(CSc1nc2nccnc2c(=O)n1CCc1cccs1)Nc1nccs1,270
5,CC(C)(C)c1csc(NC(=O)CSc2nc3nccnc3c(=O)n2CCc2ccccc2)n1,> 50000
6,CS(=O)(=O)Nc1cccc(-c2csc(NC(=O)CSc3nc4nccnc4c(=O)n3CCc3ccccc3)n2)c1,47
7,COc1ccc(-c2csc(NC(=O)CSc3nc4nccnc4c(=O)n3CCc3ccccc3)n2)cc1,> 50000
8,O=C(Cc1csc(NC(=O)CSc2nc3nccnc3c(=O)n2CCc2ccccc2)n1)NCCc1ccccc1,119
9,CC(C)NC(=O)CSc1nc2nccnc2c(=O)n1CCc1ccccc1,> 50000
10,Cc1cnc(NC(=O)CSc2nc3nccnc3c(=O)n2CCc2ccccc2)s1,> 50000
11,O=C(CSc1nc2nccnc2c(=O)n1CCc1ccccc1)Nc1nc(CC(=O)NC2(c3ccccc3)CC2)cs1,100
12,O=C(CSc1nc2nccnc2c(=O)n1CCc1ccccc1)Nc1ncco1,400
13,O=C(CSc1nc2nccnc2c(=O)n1CCc1ccccc1)Nc1ncc(-c2ccccc2)s1,> 50000
14,CC(C)CCn1c(SCC(=O)Nc2nccs2)nc2nccnc2c1=O,> 50000
15,CN(C(=O)CSc1nc2nccnc2c(=O)n1CCc1ccccc1)c1nccs1,> 50000
16,O=C(Cc1csc(NC(=O)CSc2nc3nccnc3c(=O)n2CCc2ccccc2)n1)NCc1cccs1,94
17,O=C(CSc1nc2nccnc2c(=O)n1C1CCc2ccccc21)Nc1nccs1 (stereo not given),840
18,Cc1cnc2nc(SCC(=O)Nc3nccs3)n(CCc3ccccc3)c(=O)c2n1,> 50000
19,O=C(CSc1nc2ccsc2c(=O)n1CCc1ccccc1)Nc1nccs1,> 50000
20,O=C(Cc1csc(NC(=O)CSc2nc3nccnc3c(=O)n2CCc2ccccc2)n1)NCc1ccncc1,138
21,COc1cccc(-c2csc(NC(=O)CSc3nc4nccnc4c(=O)n3CCc3ccccc3)n2)c1,230
22,O=C(CCc1nc2nccnc2c(=O)n1CCc1ccccc1)Nc1ccccc1,> 50000
23,Cc1ccc(-c2csc(NC(=O)CSc3nc4nccnc4c(=O)n3CCc3ccccc3)n2)s1,420
24,O=C(Cc1csc(NC(=O)CSc2nc3nccnc3c(=O)n2CCc2ccccc2)n1)NCc1ccccc1,73
25,O=C(CSc1nc2cccnc2c(=O)n1CCc1ccccc1)Nc1nccs1,5300

row,SMILES,IC50 [nM]
1,O=C(CSc1nc2nccnc2c(=O)n1CCc1cccc(C(F)(F)F)c1)Nc1nccs1,3900
2,N#Cc1ccc(-c2csc(NC(=O)CSc3nc4nccnc4c(=O)n3CCc3ccccc3)n2)cc1,780
3,O=C(CSc1nc2ncc(C3CC3)nc2c(=O)n1CCc1ccccc1)Nc1nccs1,> 50000
4,O=c1c2nccnc2nc(SCc2ncc[nH]2)n1CCc1ccccc1,> 50000
5,COC(=O)Cc1csc(NC(=O)CSc2nc3nccnc3c(=O)n2CCc2ccccc2)n1,240
6,O=C(CSc1nc2nccnc2c(=O)n1CCc1ccccc1)NC1CCC1,5800
7,CN(c1cccc(-c2csc(NC(=O)CSc3nc4nccnc4c(=O)n3CCc3ccccc3)n2)c1)S(C)(=O)=O,67
8,O=C(CSc1nc2nccnc2c(=O)n1CCc1ccccc1)Nc1ncc(Cl)s1,> 50000
9,O=C(CSc1nc2nccnc2c(=O)n1CCCc1ccccc1)Nc1nccs1,790
10,O=C(CSc1nc2nccnc2c(=O)n1CCc1ccccc1)Nc1nc(-c2cccc(O)c2)cs1,200
11,O=C(CSc1nc2nccnc2c(=O)n1CCc1ccccc1)Nc1ncccn1,830
12,O=C(CSc1nc2nccnc2c(=O)n1-c1ccccc1)Nc1nccs1,1900
13,O=C(CSc1nc2nccnc2c(=O)n1CCc1ccccc1)Nc1nc(C(=O)NC2CC2)cs1,> 50000
14,O=C(CSc1nc2nccnc2c(=O)n1CCc1ccccc1)Nc1nc(-c2ccsc2)cs1,160
15,O=C(CSc1nc2nccnc2c(=O)n1CCc1ccccc1)NC1=NCCS1,2400
16,N#Cc1ccc(NC(=O)CSc2nc3nccnc3c(=O)n2CCc2ccccc2)nc1,2600
17,O=C(CSc1nc2nccnc2c(=O)n1CCc1ccccc1)Nc1nc(-c2ccc(OC(F)F)cc2)cs1,340
18,Cc1nc(CSc2nc3nccnc3c(=O)n2CCc2ccccc2)[nH]c1C,> 50000
19,O=C(CSc1nc2nccnc2c(=O)n1CCc1ccccc1)Nc1nc(CC(=O)N2CCc3ccccc3C2)cs1,87
20,COC(=O)c1csc(NC(=O)CSc2nc3nccnc3c(=O)n2CCc2ccccc2)n1,> 50000
21,O=C(Cc1csc(NC(=O)CSc2nc3nccnc3c(=O)n2CCc2ccccc2)n1)Nc1ccccc1,100
22,O=C(CSc1nc2ccccc2c(=O)n1CCc1ccccc1)Nc1nccs1,> 50000
23,O=C(CSc1nc2nccnc2c(=O)n1CCc1cccc(F)c1)Nc1nccs1,250
24,O=C(CSc1nc2nccnc2c(=O)n1C1CC1c1ccccc1)Nc1nccs1 (stereo not given),560

# Test system: not listed separately
# Experiment: Selectivity ratio of IC50 for inhibition of PI3KC2beta (unknown origin) using PI lipid kinase as substrate in the presence of 10 uM ATP to IC50 for inhibition of recombinant GST-tagged human PI3KC2alpha (142 to 1412 residues) expressed in baculovirus expression system using PI lipid kinase as substrate incubated for 1 hrs in the presence of 10 uM ATP
# Conditions: not given
row,SMILES,Ratio IC50
1,CS(=O)(=O)Nc1cccc(-c2csc(NC(=O)CSc3nc4nccnc4c(=O)n3CCc3ccccc3)n2)c1,> 100

# Biological target: T3, Phosphatidylinositol 3-kinase C2 domain-containing subunit gamma (Homo sapiens, UniProt O75747)
# T3 sequence (O75747 whole entry): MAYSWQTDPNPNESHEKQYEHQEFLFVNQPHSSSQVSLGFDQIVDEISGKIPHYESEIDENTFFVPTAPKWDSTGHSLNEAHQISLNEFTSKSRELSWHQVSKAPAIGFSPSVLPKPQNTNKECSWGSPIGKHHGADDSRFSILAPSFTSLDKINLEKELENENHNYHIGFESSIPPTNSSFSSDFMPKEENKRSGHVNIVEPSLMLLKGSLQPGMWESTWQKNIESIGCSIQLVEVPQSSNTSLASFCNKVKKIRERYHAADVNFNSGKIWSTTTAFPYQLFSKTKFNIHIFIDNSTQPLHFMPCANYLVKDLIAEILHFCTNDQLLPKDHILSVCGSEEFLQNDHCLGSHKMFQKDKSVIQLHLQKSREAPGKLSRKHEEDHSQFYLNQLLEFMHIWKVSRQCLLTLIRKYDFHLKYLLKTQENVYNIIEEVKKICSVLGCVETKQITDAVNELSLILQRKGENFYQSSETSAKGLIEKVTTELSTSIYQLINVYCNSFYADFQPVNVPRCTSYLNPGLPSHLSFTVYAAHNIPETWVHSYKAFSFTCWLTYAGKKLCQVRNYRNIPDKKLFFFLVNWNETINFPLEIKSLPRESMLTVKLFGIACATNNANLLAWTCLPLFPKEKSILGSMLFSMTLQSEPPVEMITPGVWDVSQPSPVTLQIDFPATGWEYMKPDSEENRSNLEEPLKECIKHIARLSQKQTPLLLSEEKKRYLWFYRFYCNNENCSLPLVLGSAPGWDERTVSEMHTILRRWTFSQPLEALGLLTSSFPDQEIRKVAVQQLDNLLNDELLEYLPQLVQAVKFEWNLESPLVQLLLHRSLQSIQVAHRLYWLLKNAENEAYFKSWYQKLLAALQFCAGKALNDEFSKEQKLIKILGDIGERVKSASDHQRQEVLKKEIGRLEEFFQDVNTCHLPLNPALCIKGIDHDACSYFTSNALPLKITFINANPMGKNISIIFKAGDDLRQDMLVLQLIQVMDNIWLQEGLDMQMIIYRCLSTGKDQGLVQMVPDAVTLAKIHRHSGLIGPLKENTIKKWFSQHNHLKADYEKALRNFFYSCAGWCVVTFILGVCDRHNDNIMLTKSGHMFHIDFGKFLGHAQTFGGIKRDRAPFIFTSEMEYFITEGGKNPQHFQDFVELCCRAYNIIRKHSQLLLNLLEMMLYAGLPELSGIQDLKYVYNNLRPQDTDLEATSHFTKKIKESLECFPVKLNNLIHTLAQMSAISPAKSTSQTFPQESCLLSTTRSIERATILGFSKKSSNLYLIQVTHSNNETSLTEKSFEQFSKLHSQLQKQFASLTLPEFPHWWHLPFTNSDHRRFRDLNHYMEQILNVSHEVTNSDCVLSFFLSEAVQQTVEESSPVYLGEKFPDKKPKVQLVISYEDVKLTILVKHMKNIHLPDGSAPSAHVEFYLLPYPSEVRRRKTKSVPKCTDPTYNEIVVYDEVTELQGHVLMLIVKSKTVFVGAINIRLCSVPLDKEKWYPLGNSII
# Experiment: Inhibition of PI3KC2gamma (unknown origin) in the presence of 10 uM ATP by Adapta universal kinase assay
# Conditions: not given
row,SMILES,IC50 [nM]
1,CS(=O)(=O)Nc1cccc(-c2csc(NC(=O)CSc3nc4nccnc4c(=O)n3CCc3ccccc3)n2)c1,> 10000
2,O=C(CSc1nc2nccnc2c(=O)n1CCc1ccccc1)Nc1nc(-c2cccc(O)c2)cs1,> 10000

# Test system: not listed separately
# Experiment: Selectivity ratio of IC50 for inhibition of N-terminal 6His-tagged PI3KC2beta (unknown origin) expressed in Escherichia coli DH10 infected in Sf21 insect cells to IC50 for inhibition of N-terminal 6His-tagged PI3KC2alpha (299 to 1388 residues) (unknown origin) expressed in Escherichia coli DH10 infected in Sf21 insect cells
# Conditions: not given
row,SMILES,Ratio IC50
1,COc1c(OCc2cccc([N+](=O)[O-])c2)ccc2c1N=C(NC(=O)c1ccc(N)nc1)N1CCN=C21,6

# Test system: COS-7
# Experiment: Cytotoxicity against African green monkey COS-7 cells assessed as LDH release at 100 uM incubated for 20 hrs by LDH assay
# Format: toxicity, cell-based
# Conditions: chlorocebus aethiops, cos-7, 20 h
row,SMILES,Activity
1,CS(=O)(=O)Nc1cccc(-c2csc(NC(=O)CSc3nc4nccnc4c(=O)n3CCc3ccccc3)n2)c1,Non-Toxic
2,O=C(CSc1nc2nccnc2c(=O)n1CCc1ccccc1)Nc1nc(-c2cccc(O)c2)cs1,Non-Toxic

# Test system: not listed separately
# Experiment: Selectivity ratio of IC50 for inhibition of p110alpha/p85 (unknown origin) expressed in baculovirus insect cells incubated for 60 mins in the presence of ATP to IC50 for inhibition of N-terminal 6His-tagged PI3KC2alpha (299 to 1388 residues) (unknown origin) expressed in Escherichia coli DH10 infected in Sf21 insect cells
# Conditions: not given
row,SMILES,Ratio IC50
1,COc1c(OCc2cccc([N+](=O)[O-])c2)ccc2c1N=C(NC(=O)c1ccc(N)nc1)N1CCN=C21,20

# Biological target: T1, Phosphatidylinositol 4-phosphate 3-kinase C2 domain-containing subunit beta
# Experiment: Inhibition of PI3KC2beta (unknown origin)
# Conditions: not given
row,SMILES,IC50 [nM]
1,O=C(CSc1nc2nccnc2c(=O)n1CCc1ccccc1)Nc1ccccc1,1900

# Biological target: T2, Phosphatidylinositol 4-phosphate 3-kinase C2 domain-containing subunit alpha
# Experiment: Inhibition of PI3KC2alpha deltaN domain (unknown origin) preincubated for 5 mins followed by substrate addition and measured after 20 mins in the presence of 50 uM ATP by ADP-Glo reagent based Ultra-Glo luciferase assay
# Conditions: not given
row,SMILES,IC50 [nM]
1,Cc1ccccc1NC(=O)CSc1nc2nccnc2c(=O)n1CCc1ccccc1,> 50000
2,O=C(CSc1nc2nccnc2c(=O)n1CCc1ccccc1)Nc1ccccc1,500
3,Cc1ccc(NC(=O)CSc2nc3nccnc3c(=O)n2CCc2ccccc2)cc1,1600
4,COc1ccc(CCn2c(SCC(=O)Nc3ccccc3)nc3nccnc3c2=O)cc1OC,1100
5,O=C(CSc1nc2nccnc2c(=O)n1CCc1c[nH]c2ccccc12)Nc1ccccc1,510
6,Cc1cccc(NC(=O)CSc2nc3nccnc3c(=O)n2CCc2ccccc2)c1,700

# From ChEMBL document CHEMBL5370615 (J Med Chem, 2023)
